Measurements published in patent US20240148744A1 (Celgene Corporation, priority 2021, published 2024).

tested on: Onchocerca gutturosa adult male worms; assay: Onchocerca gutturosa in vitro screening model: adult worm motility score and MTT/formazan viability; format: cell-based; conditions: read-out: O. gutt Activity class

| SMILES | IC50 [µM] |
| --- | --- |
| N#Cc1ccnc(S(=O)(=O)Nc2c(Cl)ccc3cccnc23)c1 [Compound 71, N-(7-chloro-quinolin-8-yl)-4-cyano-pyridine-2-sulfonamide] | < 0.2 |
| O=S(=O)(Nc1cccc2cccnc12)c1ccc(-c2ccccc2)cn1 [Compound 244, 5-phenyl-N-(quinolin-8-yl)pyridine-2-sulfonamide] | 0.5 to 5 |
| COc1cccc(S(=O)(=O)Nc2cccc3cccnc23)n1 [Compound 224, 6-methoxy-N-(quinolin-8-yl)pyridine-2-sulfonamide] | 0.2 to 0.5 |
| O=S(=O)(Nc1cccc2cccnc12)c1ncccc1C1CC1 [Compound 214] | 0.2 to 0.5 |
| O=S(=O)(Nc1cccc2cccnc12)c1ccncn1 [Compound 199, N-(quinolin-8-yl)pyrimidine-4-sulfonamide] | 0.5 to 5 |
| Cc1cc(NS(=O)(=O)c2ccccn2)c2ncccc2c1 [Compound 132, N-(6-methyl-quinolin-8-yl)pyridine-2-sulfonamide] | 0.2 to 0.5 |
| Cc1cccnc1S(=O)(=O)Nc1cccc2c1CN(C)C2 [Compound 51, 3-methyl-N-(2-methyl-isoindolin-4-yl)pyridine-2-sulfonamide] | < 0.2 |
| CC(C)n1nccc1S(=O)(=O)Nc1cccc2c1CN(C1CC1)C2 [Compound 40, N-(2-cyclo-propyliso-indolin-4-yl)-1-isopropyl-1H-pyrazole-5-sulfonamide] | 0.5 to 5 |
| Cc1cccnc1S(=O)(=O)Nc1cccc2c(F)ccnc12 [Compound 12, N-(4-fluoro-quinolin-8-yl)-3-methylpyr-idine-2-sulfonamide] | 0.2 to 0.5 |
| O=S(=O)(Nc1cccc2cccnc12)c1ccc(F)cn1 [Compound 247, 5-fluoro-N-(quinolin-8-yl)pyridine-2-sulfonamide] | < 0.2 |
| Cn1nc(N2CCOCC2)cc1S(=O)(=O)Nc1cccc2cccnc12 [Compound 192, 1-methyl-3-morpholino-N-(quinolin-8-yl)-1H-pyrazole-5-sulfonamide] | 0.5 to 5 |
| O=S(=O)(Nc1ccc(F)c2cccnc12)c1cn[nH]c1 [Compound 63, N-(5-fluoro-quinolin-8-yl)-1H-pyrazole-4-sulfonamide] | 0.5 to 5 |
| O=S(=O)(Nc1cccc2cccnc12)c1ccc(F)cc1F [Compound 275, 2,4-difluoro-N-(quinolin-8-yl)benzene-sulfonamide] | 0.2 to 0.5 |
| O=S(=O)(Nc1cccc2cccnc12)c1ccccc1C(F)(F)F [Compound 274, N-(quinolin-8-yl)-2-(trifluoromethyl) benzene-sulfonamide] | < 0.2 |
| CC(C)n1ccnc1S(=O)(=O)Nc1cccc2c1CN(C1CC1)C2 [Compound 33, N-(2-cyclo-propyliso-indolin-4-yl)-1-isopropyl-1H-imidazole-2-sulfonamide] | 0.2 to 0.5 |
| Cc1ccc(S(=O)(=O)Nc2cc(F)c(F)c3cccnc23)cc1 [Compound 136, N-(5,6-difluoroquin-olin-8-yl)-4-methylben-zenesulfon-amide] | 0.2 to 0.5 |
| Cc1cccnc1S(=O)(=O)Nc1cccc2c1CN(C)CC2 [Compound 43, 3-methyl-N-(2-methyl-1,2,3,4-tetra-hydroisoquin-olin-8-yl)pyr-idine-2-sulfonamide] | < 0.2 |
| Cc1cccnc1S(=O)(=O)Nc1cncc2cccnc12 [Compound 194, 3-methyl-N-(1,6-naphthyridin-8-yl)pyridine-2-sulfonamide] | 0.2 to 0.5 |
| O=S(=O)(Nc1cc(F)cc2cccnc12)c1ccccn1 [Compound 135, N-(6-fluoro-quinolin-8-yl)-pyridine-2-sulfonamide] | 0.5 to 5 |
| N#Cc1cccc(S(=O)(=O)Nc2cccc3cccnc23)c1 [Compound 250, 3-cyano-N-(quinolin-8-yl)benzene-sulfonamide] | 0.5 to 5 |

| SMILES | IC50 [µM] |
| --- | --- |
| O=S(=O)(Nc1cc(C2CCCCC2)cc2cccnc12)c1ccccn1 [Compound 131, N-(6-cyclo-hexylquinolin-8-yl)pyridine-2-sulfonamide] | 0.5 to 5 |
| Cc1cccnc1S(=O)(=O)Nc1cccc2c1NCCC2 [Compound 56, 3-methyl-N-(1,2,3,4-tetra-hydroquinolin-8-yl)pyridine-2-sulfonamide] | 0.5 to 5 |
| Cc1cc(C)cc(S(=O)(=O)Nc2cc(F)cc3cccnc23)c1 [Compound 91, N-(6-fluoro-quinolin-8-yl)-3,5-dimethyl-benzene-sulfonamide] | < 0.2 |
| Cc1nc(S(=O)(=O)Nc2cccc3cccnc23)c(C#N)c(C)c1Cl [Compound 175, 5-chloro-3-cyano-4,6-dimethyl-N-(quinolin-8-yl)pyridine-2-sulfonamide] | 0.2 to 0.5 |
| CCn1c(S(=O)(=O)Nc2cccc3cccnc23)nc(C)c1C [Compound 226, 1-ethyl-4,5-dimethyl-N-(quinolin-8-yl)-1H-imidazole-2-sulfonamide] | < 0.2 |
| O=S(=O)(Nc1cccc2cccnc12)c1ccc(Cl)cc1Cl [Compound 278, 2,4-dichloro-N-(quinolin-8-yl)benzene-sulfonamide] | 0.2 to 0.5 |
| N#Cc1ccc(S(=O)(=O)Nc2cccc3cccnc23)cc1 [Compound 279, 4-cyano-N-(quinolin-8-yl)benzene-sulfonamide] | 0.2 to 0.5 |
| CC(C)n1nccc1S(=O)(=O)Nc1cccc2c(Cl)ccnc12 [Compound 79, N-(4-chloro-quinolin-8-yl)-1-iso-propyl-1H-pyrazole-5-sulfonamide] | < 0.2 |
| Cc1nccnc1S(=O)(=O)Nc1c(Cl)ccc2cccnc12 [Compound 70, N-(7-chloro-quinolin-8-yl)-3-methyl-pyrazine-2-sulfonamide] | 0.5 to 5 |
| Cc1cccnc1S(=O)(=O)Nc1cccc2c1CN(C1CC1)CC2 [Compound 36, N-(2-cyclo-propyl-1,2,3,4-tetra-hydroisoquin-olin-8-yl)-3-methylpyr-idine-2-sulfonamide] | 0.5 to 5 |
| O=S(=O)(Nc1cccc2cccnc12)c1ncccc1O [Compound 219, 3-hydroxy-N-(quinolin-8-yl)pyridine-2-sulfonamide] | 0.5 to 5 |
| Cc1ccc(NS(=O)(=O)c2ccccn2)c2ncccc12 [Compound 137, N-(5-methyl-quinolin-8-yl)pyridine-2-sulfonamide] | < 0.2 |
| O=S(=O)(Nc1cccc2c1NCCC2)c1ncccc1F [Compound 46, 3-fluoro-N-(1,2,3,4-tetra-hydroquin-olin-8-yl)-pyridine-2-sulfonamide] | 0.5 to 5 |
| Cc1nccnc1S(=O)(=O)Nc1cccc2cccnc12 [Compound 210, 3-methyl-N-(quinolin-8-yl)pyrazine-2-sulfonamide] | < 0.2 |
| O=S(=O)(Nc1ccc2cccnc2c1)c1ccccn1 [Compound 262, N-(quinolin-7-yl)pyridine-2-sulfonamide] | 0.5 to 5 |
| COc1ccc(NS(=O)(=O)c2ccco2)c2ncccc12 [Compound 60, N-(5-meth-oxyquinolin-8-yl)furan-2-sulfonamide] | 0.5 to 5 |
| O=S(=O)(Nc1cccc2cccnc12)c1cnc(-c2ccccn2)s1 [Compound 170, 2-(pyridin-2-yl)-N-(quinolin-8-yl)thiazole-5-sulfonamide] | < 0.2 |
| O=S(=O)(Nc1ccc(N2CCOCC2)c2cccnc12)c1ccco1 [Compound 61, N-(5-morph-olinoquin-olin-8-yl)-furan-2-sulfonamide] | 0.5 to 5 |
| O=S(=O)(Nc1ccc(F)c2cccnc12)c1ccco1 [Compound 64, N-(5-fluoro-quinolin-8-yl)furan-2-sulfonamide] | < 0.2 |
